From US20100278940A1, “Calcium supplements” (HL DISTRIBUTION COMPANY, priority 2005, published 2010)

Assays:
[1] = test system: osteoblastic hFOB 1.19 cells; test: MDA assay (H2O2-induced oxidative stress, lipid peroxidation); assay type: cell-based, human; conditions: 24 h
Protocol: (§1) These alterations in temperature were required because hFOB 1.19 cells were conditionally immortalized with a gene encoding a temperature-sensitive mutant (tsA58) of SV40 large T antigen.
(§2) AC was dissolved in HCl:H2O mixture at the ratio of 13:2. Calcium carbonate and calcium citrate were dissolved in distilled water. The stock solution of vitamin D3 was dissolved in ethyl alcohol as per the manufacturer's instructions and directly added in the medium to achieve its final concentration. […] The amount of calcium present in 0.5 mg of AC is 0.15 mg. […] Finally, the pH was maintained same in all the preparations.
After 24 h of treatment with compounds in the presence and absence of H2O2 (0.3 mM), the cells were washed with cold PBS, scraped, and homogenized in lysis buffer. […] of cell lysate was used for measuring the MDA levels by following the manufacturer's instructions. […] In this study, MDA standard was used to construct a standard curve.
(§3) Data were expressed as the mean±SEM of 3-6 independent experiments. Statistical comparisons of the results were made using one way analysis of variance (ANOVA). Significant differences (p≦0.05) between the means of control and test group were analyzed by the Neuman-Keuls multiple comparison test.

[2] = test system: Human fetal osteoblast cells (hFOB 1.19); test: Alkaline phosphatase (ALP) activity in osteoblast cells; assay type: cell-based; conditions: 4 days; AC 0.5 mg/ml, 0.15 mg/ml calcium from carbonate or citrate; mean±SEM
Protocol: as §1, §2, §3

[3] = test system: Human fetal osteoblast cells (hFOB 1.19); test: Mineralization/calcium deposition assay (Alizarin Red S); assay type: cell-based; conditions: 2 days treatment, without vitamin D3; mean±SEM
Protocol: as §1, §2, §3

[4] = test system: Human fetal osteoblast cells (hFOB 1.19); test: Immunocytochemistry for proliferating cell nuclear antigen (PCNA) expression; assay type: cell-based; conditions: 4 days treatment, without vitamin D3
Protocol: Human fetal osteoblast cells (hFOB 1.19-ATCC number: CRL-11372) were seeded at a density of 10,000 cells cm^−2 in a mixture of Dulbecco's modified eagle medium (DMEM) and Ham F12 medium (1:1 ratio) supplemented with 10% fetal bovine serum (FBS) and 0.3 mg/ml […]. Osteoblast cells were cultured in a humidified atmosphere of 5% CO2 at 33.5° C. for cell attachment and proliferation and at 39.5° C. for other assays. These alterations in temperature were required because hFOB 1.19 cells were conditionally immortalized with a gene encoding a temperature-sensitive mutant (tsA58) of SV40 large T antigen.
AC was dissolved in HCl:H2O mixture at the ratio of 13:2. Calcium carbonate and calcium citrate were dissolved in distilled water. The stock solution of vitamin D3 was dissolved in ethyl alcohol as per the manufacturer's instructions and directly added in the medium to achieve its final concentration. […] The same dose was used for further experiments in the present study. The amount of calcium present in 0.5 mg of AC is 0.15 mg. […] Finally, the pH was maintained same in all the preparations.
To evaluate proliferative activity, immunohistochemistry for PCNA was performed after 4 days treatment of AC, calcium carbonate and calcium citrate. The experiment was done by following the instructions of PCNA staining kit (Invitrogen). […]

[5] = test system: Human fetal osteoblast cells (hFOB 1.19); test: DNA synthesis assay ([3H] thymidine incorporation); assay type: cell-based; conditions: 4 days treatment, without vitamin D3; mean±SEM
Protocol: as §1, §2, §3

[6] = in presence of 0.3 mM H2O2, mean±SEM

Structure (SMILES) | MDA levels ([1]; 0.3 mM H2O2 alone, control 0.6768±0.084) [µM] | ALP activity [2] [nmol/mg protein] | calcium deposition (mineralization) [3] [OD at 561 nm] | expression of PCNA [4] | [3H] thymidine incorporation counts (DNA synthesis) [5] [cpm] | MDA levels [1, 6] [µM]
OO [Example H2O2, H2O2] | 1.992 ± 0.116 | – | – | – | – | –
O=C([O-])CC(O)(CC(=O)[O-])C(=O)[O-].O=C([O-])CC(O)(CC(=O)[O-])C(=O)[O-].[Ca+2].[Ca+2].[Ca+2] [calcium citrate] | – | 302.1±47.8 | 0.1267±0.0054 | considerably higher than the control and calcium carbonate-treated cells | 45±9.9 | 1.289 ± 0.109
O=C([O-])[O-].[Ca+2] [calcium carbonate, Calcium carbonate] | – | 372.2±15.7 | 0.1810±0.0115 | – | 62.8±11.6 | 1.263 ± 0.062
